Test results: patent US11466005B2, “Tricyclic compounds” (JACOBIO PHARMACEUTICALS CO., LTD., priority 2018, dated 2022)

Tests used:
BRD4(BD1) = BRD4(BD1) (Homo sapiens (Human), UniProt O60885); experiment: BRD4(BD1) biochemical binding assay (HTRF); conditions: biotinylated H4 derived acetylated peptide
Experimental: 1. BRD4(BD1) Binding Assays
The BRD4(BD1) biochemical binding assay was performed by Sundia MediTech Co. Ltd. in 384-well white plate (OptiPlate-384, PerkinElmer) using HTRF technology.
Briefly, 20 nL of compounds were transferred to the 384-well plate by Echo® 550 liquid handler (Labcyte, USA), then 5 μL of BRD4(BD1) (Reaction Biology Company, RD-11-157) solution or the assay buffer was added to each well. After incubating at RT for 15 min, 5 μL of the biotinylated H4 derived acetylated peptide (synthesized by GL Biochem (Shanghai) Ltd) and 10 μL of the detection solution (Cisbio Assay) were added to each well. After incubating for 1 h at RT, the HTRF signal was measure at 615 nm and 665 nm using the EnVision Multilabel Plate Reader (PerkinElmer, USA). Results were analyzed with a two-wavelength signal ratio: intensity (665 nm)/intensity (615 nm). The inhibition percentage in the presence of the compound was calculated according to the equation, Percent inhibition=(Max−Signal)/(Max−Min)*100%. Fit the data in GraphPad Prism V5.0 software (San Diego, Calif.) to obtain IC50 values with nonlinear regression analysis using equation, Y=Bottom+(Top−Bottom)/(1+10^((Log IC50−X)×HillSlope), where Y stands for inhibition percentage and X stands for compound concentration.

MV-4-11 cells = experiment: MV-4-11 cell proliferation assay (MTS); type: cell-based; conditions: Homo sapiens, MV4-11, 72 h, 3 days culture
Experimental: 2. Cell Proliferation Assay
MV-4-11 cell proliferation analysis was conducted by the MIS (3-(4,5-dimethylthiazol-2-yl)-5-(3-carboxymethoxyphenyl)-2-(4-sulfophenyl)-2H-tetrazolium, inner salt) assay. Briefly, MV-4-11 cells will be cultured in IMDM (Iscove's Modified Dubecco's Medium) medium supplemented with 10% (v/v) FBS (fetal bovine serum), under the temperature of 37° C., […] and 95% humidity. The cells will be harvested respectively during the logarithmic growth period and counted with hemocytometer. The cell viability is over […] by trypan blue exclusion. Adjust MV-4-11 cells concentrations to 1.2×10^5 cells/mL with complete medium. Add 100 μL cell suspensions to 96-well plates (triplicates for each cell concentration), the final cell densities are 1.2×10^4 cells/well. The next day, dissolve the test compound with DMSO as stock solution. Dispense 5 μL of the stock solution in 1 mL culture media and add 25 μL drug media into 96-well plates. After serially diluting with culture media, the final concentration of the compound will be 0, 0.03, 0.1, 0.3, 1, 3, 10, 30, 100 nM. The plates will be cultured for 3 days, then measured by means of MTS assay. Add PMS (phenazinium methosulfate) solution to MITS solution (1:20) immediately before addition to the culture plate containing cells. Pipet 20 μL of the combined MTS/PMS Solution into each well of the 96 well assay plate containing 100 μL of cells in culture medium. Incubate the plate for 1-4 hours at 37° C. in a humidified, 5% CO2 atmosphere. Record the absorbance at 490 nm using a microplate spectrophotometer (Envision®, PeikinElmer). Fit the data using GraphPad 5.0 and obtain IC50 values.

Compound	IC50 (BRD4(BD1)) [nM]	IC50 (MV-4-11 cells) [nM]
Cc1cccnc1C(CCC(F)(F)F)n1c2cc(-c3c(C)nnn3C)cnc2c2c1c(C(C)(C)O)nn2C (centres unmarked) [Compound 11, 2-(6-(1,4-dimethyl-1H-1,2,3-triazol-5-yl)-1-methyl-4-(4,4,4-trifluoro-1-(3-methylpyridin-2-yl)butyl)-1,4-dihydropyrazolo[3′,4′:4,5]pyrrolo[3,2-b]pyridin-3-yl)propan-2-ol]	1.3	7.66
Cc1nnn(C)c1-c1cnc2c3c(c(C(C)(C)O)nn3C)n(C(CCC(F)(F)F)c3ccccc3)c2c1 (centres unmarked) [Compound 3, 2-(6-(1,4-Dimethyl-1H-1,2,3-triazol-5-yl)-1-methyl-4-(4,4,4-trifluoro-1-phenylbutyl)-1,4-dihydropyrazolo[3′,4′:4,5]pyrrolo[3,2-b]pyridin-3-yl)propan-2-ol]	0.66	6.06
CCC(O)(CC)c1nn(C)c2c3ncc(-c4c(C)nnn4C)cc3n(C(c3ccccc3)C3CCOCC3)c12 (centres unmarked) [Compound 19, 3-(6-(1,4-Dimethyl-1H-1,2,3-triazol-5-yl)-1-methyl-4-(phenyl(tetrahydro-2H-pyran-4-yl)methyl)-1,4-dihydropyrazolo[3′,4′:4,5]pyrrolo[3,2-b]pyridin-3-yl)pentan-3-ol]	0.79	7.17
COc1ccncc1C(C1CCOCC1)n1c2cc(-c3c(C)nnn3C)cnc2c2c1c(C(C)(C)O)nn2C (centres unmarked) [Compound 25, 2-(6-(1,4-dimethyl-1H-1,2,3-triazol-5-yl)-4-((4-methoxypyridin-3-yl)(tetrahydro-2H-pyran-4-yl)methyl)-1-methyl-1,4-dihydropyrazolo[3′,4′:4,5]pyrrolo[3,2-b]pyridin-3-yl)propan-2-ol]		8.25
Cc1nnn(C)c1-c1cnc2c3[nH]nc(C(C)(C)O)c3n([C@H](c3ncccc3F)C3CCOCC3)c2c1 [Compound 13, (S)-2-(6-(1,4-Dimethyl-1H-1,2,3-triazol-5-yl)-4-((3-fluoropyridin-2-yl)(tetrahydro-2H-pyran-4-yl)methyl)-1,4-dihydropyrazolo[3′,4′:4,5]pyrrolo[3,2-b]pyridin-3-yl)propan-2-ol]	0.4	1.15
Cc1cccnc1C(C1CCOCC1)n1c2cc(-c3c(C)noc3C)cnc2c2c1c(C(C)(C)O)nn2C (centres unmarked) [Compound 8, 2-(6-(3,5-dimethylisoxazol-4-yl)-1-methyl-4-((3-methylpyridin-2-yl)(tetrahydro-2H-pyran-4-yl)methyl)-1,4-dihydropyrazolo[3′,4′:4,5]pyrrolo[3,2-b]pyridin-3-yl)propan-2-ol]	12	31.6
COC(=O)c1nn(C)c2c3ncc(-c4c(C)nnn4C)cc3n([C@H](c3ncccc3F)C3CCOCC3)c12 [Compound 7-2, (S)-Methyl 6-(1,4-dimethyl-1H-1,2,3-triazol-5-yl)-4-((3-fluoropyridin-2-yl)(tetrahydro-2H-pyran-4-yl)methyl)-1-methyl-1,4-dihydropyrazolo[3′,4′:4,5]pyrrolo[3,2-b]pyridine-3-carboxylate]		1.11
Cc1cccnc1C(C1CCOCC1)n1c2cc(-c3c(C)nnn3C)cnc2c2c1c(C(C)(C)O)nn2C (centres unmarked) [Compound 5, 2-(6-(1,4-Dimethyl-1H-1,2,3-triazol-5-yl)-1-methyl-4-((3-methylpyridin-2-yl)(tetrahydro-2H-pyran-4-yl)methyl)-1,4-dihydropyrazolo[3′,4′:4,5]pyrrolo[3,2-b]pyridin-3-yl)propan-2-ol]	0.59	1.24
Cc1noc(C)c1-c1cnc2c3c(c(C(C)(C)O)nn3C)n([C@H](c3ccccc3)C3CCOCC3)c2c1 [Compound 1, (S)-2-(6-(3,5-dimethylisoxazol-4-yl)-1-methyl-4-(phenyl(tetrahydro-2H-pyran-4-yl)methyl)-1,4-dihydropyrazolo[3′,4′:4,5]pyrrolo[3,2-b]pyridin-3-yl)propan-2-ol]	0.48	0.89
Cc1nnn(C)c1-c1cnc2c3c(c(C(N)=O)nn3C)n(C(c3ncccc3F)C3CCOCC3)c2c1 (centres unmarked) [Compound 21, 6-(1,4-Dimethyl-1H-1,2,3-triazol-5-yl)-4-((3-fluoropyridin-2-yl)(tetrahydro-2H-pyran-4-yl)methyl)-1-methyl-1,4-dihydropyrazolo[3′,4′:4,5]pyrrolo[3,2-b]pyridine-3-carboxamide]		0.77
Cc1nnn(C)c1-c1cnc2c3c(c(C(C)(C)O)nn3C)n([C@H](c3ncccc3F)C3CCOCC3)c2c1 [Compound 7, (S)-2-(6-(1,4-dimethyl-1H-1,2,3-triazol-5-yl)-4-((3-fluoropyridin-2-yl)(tetrahydro-2H-pyran-4-yl)methyl)-1-methyl-1,4-dihydropyrazolo[3′,4′:4,5]pyrrolo[3,2-b]pyridin-3-yl)propan-2-ol]	0.97	0.7
Cc1nnn(C)c1-c1cnc2c3c(c(NS(C)(=O)=O)nn3C)n([C@H](c3ccccc3)C3CCOCC3)c2c1 [Compound 28, (S)—N-(6-(1,4-dimethyl-1H-1,2,3-triazol-5-yl)-1-methyl-4-(phenyl(tetrahydro-2H-pyran-4-yl)methyl)-1,4-dihydropyrazolo[3′,4′:4,5]pyrrolo[3,2-b]pyridin-3-yl)methanesulfonamide]		10.5
Cc1cc(F)cc(C)c1C(C)n1c2cc(-c3c(C)nnn3C)cnc2c2c1c(C(C)(C)O)nn2C (centres unmarked) [Compound 27, 2-(6-(1,4-Dimethyl-1H-1,2,3-triazol-5-yl)-4-(1-(4-fluoro-2,6-dimethylphenyl)ethyl)-1-methyl-1,4-dihydropyrazolo[3′,4′:4,5]pyrrolo[3,2-b]pyridin-3-yl)propan-2-ol]	17	

Further lines, results first:

IC50 (BRD4(BD1)) [nM]	IC50 (MV-4-11 cells) [nM]	Compound
3		Cc1nnn(C)c1-c1cnc2c3c(c(C(C)(C)O)nn3C)n([C@@H](c3ncccc3F)C3CCOCC3)c2c1 [Compound 30, (R)-2-(6-(1,4-dimethyl-1H-1,2,3-triazol-5-yl)-4-((3-fluoropyridin-2-yl)(tetrahydro-2H-pyran-4-yl)methyl)-1-methyl-1,4-dihydropyrazolo[3′,4′:4,5]pyrrolo[3,2-b]pyridin-3-yl)propan-2-ol]
1.9	24.7	CC(=O)Nc1nn(C)c2c3ncc(-c4c(C)nnn4C)cc3n([C@H](c3ccccc3)C3CCOCC3)c12 [Compound 29, (S)—N-(6-(1,4-dimethyl-1H-1,2,3-triazol-5-yl)-1-methyl-4-(phenyl(tetrahydro-2H-pyran-4-yl)methyl)-1,4-dihydropyrazolo[3′,4′:4,5]pyrrolo[3,2-b]pyridin-3-yl)acetamide]
0.34	2.16	Cc1nnn(C)c1-c1cnc2c3c(c(CN4CCOCC4)nn3C)n(C(c3ccccc3)C3CCOCC3)c2c1 (centres unmarked) [Compound 34, 4-((6-(1,4-dimethyl-1H-1,2,3-triazol-5-yl)-1-methyl-4-(phenyl(tetrahydro-2H-pyran-4-yl)methyl)-1,4-dihydropyrazolo[3′,4′:4,5]pyrrolo[3,2-b]pyridin-3-yl)methyl)morpholine]
4.67		Cc1nnn(C)c1-c1cnc2c3c(c(CS(C)(=O)=O)nn3C)n(C(c3ccccc3)C3CCOCC3)c2c1 (centres unmarked) [Compound 33, 6-(1,4-dimethyl-1H-1,2,3-triazol-5-yl)-1-methyl-3-((methylsulfonyl)methyl)-4-(phenyl(tetrahydro-2H-pyran-4-yl)methyl)-1,4-dihydropyrazolo[3′,4′:4,5]pyrrolo[3,2-b]pyridine]
4.6		Cc1noc(C)c1-c1cnc2c3c(c(C(C)(C)O)nn3C)n([C@@H](c3ncccc3F)C3CCOCC3)c2c1 [Compound 31, (R)-2-(6-(3,5-dimethylisoxazol-4-yl)-4-((3-fluoropyridin-2-yl)(tetrahydro-2H-pyran-4-yl)methyl)-1-methyl-1,4-dihydropyrazolo[3′,4′:4,5]pyrrolo[3,2-b]pyridin-3-yl)propan-2-ol]
	15.5	CC(=O)N(c1nn(C)c2c3ncc(-c4c(C)nnn4C)cc3n(C(c3ccccc3)C3CCOCC3)c12)S(C)(=O)=O (centres unmarked) [Compound 35, N-(6-(1,4-dimethyl-1H-1,2,3-triazol-5-yl)-1-methyl-4-(phenyl(tetrahydro-2H-pyran-4-yl)methyl)-1,4-dihydropyrazolo[3′,4′:4,5]pyrrolo[3,2-b]pyridin-3-yl)-N-(methylsulfonyl)acetamide]
